Legend:
[1] = tested on: delayed hypersensitivity reaction (pertussis vaccine pleurisy); test: pertussis vaccine pleurisy test in rats; assay type: in vivo, rat (male Sprague-Dawley); conditions: 10 mg/kg p.o.
Excerpt: A useful test for the evaluation of the effect of chemical compounds on the immune system is the pertussis vaccine pleurisy test in rats. Compounds which enhance the response in this delayed hypersensitivity reaction are considered to stimulate cell-mediated immunity (4).
This example illustrates the effect of the compounds of the general formula I in the pertussis vaccine pleurisy test.
Pertussis vaccine pleurisy is a useful test for the evaluation of the effect of chemical compounds on the immune system. Compounds which enhance the response in this delayed hypersensitivity reaction are considered to stimulate cell-mediated immunity.
A modification of a method described in (4) was used. Male Sprague-Dawley rats weighing 250-275 g were used. At least ten animals were used in each group.
Equal volumes of Freund's incomplete adjuvant and a suspension of heat killed Bordetella pertussis organisms were mixed. To sensitize animals, day 0, 0.2 ml of a mixture containing 0.036×10^10 organisms/ml was injected into the dorsal surface of one hind paw and one forepaw.
The animals were challenged on day 12 with 0.1 ml of a mixture containing 0.25×10^10 organisms/ml that was injected intrapleurally. 48 hours after challenge, day 14, the volume of the exudate in the pleural cavity was measured.
The substances suspended in aqueous methocel solution 10 ml/kg were given intragastrically once daily from day 10 to day 13. The control groups were given methocel solution 10 ml/kg.
The effect of the substances was assessed by the exudate volume expressed in percent after comparison with the control groups.

[2] = tested on: carrageenan-induced edema; test: carrageenan edema test in rats; assay type: in vivo, rat (female Sprague-Dawley); conditions: dose within the range 10-160 mg/kg p.o.
Excerpt: Another test, in which the effect of a drug corresponds to the effects obtained in the tests mentioned above, and which can therefore also be used, is the well-established carrageenan edema test in rats (5). Comparative evaluation of compounds of the present invention in the three tests mentioned has shown that compounds which increase the extent of the delayed hypersensitivity reaction in the pertussis vaccine pleurisy test and in the adjuvant arthritis test also increase the extent of carrageenan-induced edema in the carrageenan edema test, thus providing a further tool for the determination of enhancement of cell-mediated immunity.
This example illustrates the effect of the compounds of the general formula I in the carrageenan edema test in rats.
A modification of a method described in (5) was used. Female Sprague-Dawleyrats weighing 110-120 g was used. At least 10 animals were used in each experimental group. Foot edema was induced by injecting carrageenan in 0.9% NaCl into the plantar surface of the right hind paw of the rats.
The substances suspended in aqueous methocel solution 10 ml/kg were administered intragastrically 30 minutes before the injection of carrageenan. The control groups were given methocel solution 10 ml/kg.
Three hours after carrageenan injection the animals were killed. The hind feet were cut off and weighed. The difference in weight of the injected right paw and the uninjected left paw was called edema weight.
The effect of the substances was assessed by the edema weight expressed in percent after comparison with the control groups.

Row | SMILES | significant enhancing effect in the pertussis vaccine pleurisy test [1] | significant potentiation of the carrageenan edema [2]
1 | CC(=O)Nc1ccc(N(C)C(=O)c2c(O)c3ccccc3n(C)c2=O)cc1 [20:35, N-(4-acetylaminophenyl)-N-methyl-1,2-dihydro-4-hydroxy-1-methyl-2-oxo-quinoline-3-carboxamide] | significant enhancing effect | potentiate significantly
2 | C=CCn1c(=O)c(C(=O)N(C)c2ccc(N(C)C)cc2)c(O)c2ccccc21 [20:39, N-(4-dimethylaminophenyl)-N-methyl-1-allyl-1,2-dihydro-4-hydroxy-2-oxo-quinoline-3-carboxamide] | significant enhancing effect | potentiate significantly
3 | CN(C(=O)c1c(O)c2cccc3c2n(c1=O)CC3)c1ccccc1 [21:3, N-methyl-N-phenyl-1,2-dihydro-1,8-ethylene-4-hydroxy-2-oxo-quinoline-3-carboxamide] | significant enhancing effect | potentiate significantly
4 | CCCCN(C(=O)c1c(O)c2ccccc2n(C)c1=O)c1ccccc1 [21:8, N-(n-butyl)-N-phenyl-1,2-dihydro-4-hydroxy-1-methyl-2-oxo-quinoline-3-carboxamide] | significant enhancing effect | potentiate significantly
5 | CN(C)c1ccc(N(C)C(=O)c2c(O)c3ccccc3n(C)c2=O)cc1 [21:10, N-(4-dimethylaminophenyl)-N-methyl-1,2-dihydro-4-hydroxy-1-methyl-2-oxo-quinoline-3-carboxamide] | significant enhancing effect | potentiate significantly
6 | C=CCN(C(=O)c1c(O)c2ccccc2n(C)c1=O)c1ccccc1 [21:12, N-allyl-N-phenyl-1,2-dihydro-4-hydroxy-1-methyl-2-oxo-quinoline-3-carboxamide] | significant enhancing effect | potentiate significantly
7 | CCN(C(=O)c1c(OC)c2c(F)cccc2n(C)c1=O)c1ccc(OC)c(OC)c1 [21:16, N-(3,4-dimethoxyphenyl)-N-ethyl-1,2-dihydro-5-fluoro-4-methoxy-1-methyl-2-oxo-quinoline-3-carboxamide] | significant enhancing effect | potentiate significantly
8 | CN(C(=O)c1c(O)c2cccc3c2n(c1=O)CC3)c1cnccn1 [21:20, N-methyl-N-pyrazinyl-1,2-dihydro-1,8-ethylene-4-hydroxy-2-oxo-quinoline-3-carboxamide] | significant enhancing effect | potentiate significantly
9 | CN(C(=O)c1c(O)c2ccccc2n(C)c1=O)c1nccs1 [21:21, N-methyl-N-2-thiazolyl-1,2-dihydro-4-hydroxy-1-methyl-2-oxo-quinoline-3-carboxamide] | significant enhancing effect | potentiate significantly

Reference: patent US4738971A, “N-aryl-1,2-dihydro-4-substituted-1-alkyl-2-oxo-quinoline-3-carboxamides” (priority 1981, dated 1988)
